Literature values as cited in US6444192B1, “Diagnostic imaging of lymph structures” (The Regents of the University of California, priority 1999, dated 2002).
Like-named read-outs stand apart in the source and are kept apart here.

Settings: 3 to 5 mL in the breast mass and surrounding tissue

CCN(CC)c1ccc(C(=C2C=CC(=[N+](CC)CC)C=C2)c2cc(S(=O)(=O)[O-])ccc2S(=O)(=O)[O-])cc1.[Na+] [isosulfan blue]
sentinel node detected (first 87 cases): 58% | sentinel node detected (next 87 cases): 78%
